Laboratory results as given in ChEMBL document CHEMBL1142311, “Discovery and SAR of 1,3,4-thiadiazole derivatives as potent Abl tyrosine kinase inhibitors and cytodifferentiating agents” (Bioorg Med Chem Lett, 2008).
Activity calls are given as the source filed them. The rule behind the calls is not given here.

Tests used:
[1] = Reduction of clonogenic activity in Bcr-Abl expressing mouse 32D clone cells; details: read-out: LD50
[2] = species: Mus musculus; experiment: Inhibition of p210Bcr-Abl phosphorylation in gleevec-sensitive mouse 32D cells at 10 uM
[3] = species: Mus musculus; experiment: Inhibition of p210Bcr-Abl phosphorylation in gleevec-resistant mouse 32D cells at 10 uM
[4] = tested on: HL-60; experiment: Growth inhibition of human HL60 cells after 96 hrs; format: functional, cell-based
[5] = tested on: HL-60; experiment: Growth inhibition of human HL60 cells upto 100 uM after 96 hrs; format: functional, cell-based
[6] = tested on: HL-60; experiment: Effect on PMA-stimulated human HL60 cells assessed as recovery of ROS metabolism; format: functional, cell-based
[7] = tested on: HL-60; experiment: Effect on zymosan-stimulated human HL60 cells assessed as recovery of ROS metabolism; format: functional, cell-based
[8] = target: Proto-oncogene tyrosine-protein kinase Src (Homo sapiens) (UniProt P12931); experiment: Inhibition of recombinant human c-Src
Chain of Proto-oncogene tyrosine-protein kinase Src (Homo sapiens) (P12931 2-536 limits assumed): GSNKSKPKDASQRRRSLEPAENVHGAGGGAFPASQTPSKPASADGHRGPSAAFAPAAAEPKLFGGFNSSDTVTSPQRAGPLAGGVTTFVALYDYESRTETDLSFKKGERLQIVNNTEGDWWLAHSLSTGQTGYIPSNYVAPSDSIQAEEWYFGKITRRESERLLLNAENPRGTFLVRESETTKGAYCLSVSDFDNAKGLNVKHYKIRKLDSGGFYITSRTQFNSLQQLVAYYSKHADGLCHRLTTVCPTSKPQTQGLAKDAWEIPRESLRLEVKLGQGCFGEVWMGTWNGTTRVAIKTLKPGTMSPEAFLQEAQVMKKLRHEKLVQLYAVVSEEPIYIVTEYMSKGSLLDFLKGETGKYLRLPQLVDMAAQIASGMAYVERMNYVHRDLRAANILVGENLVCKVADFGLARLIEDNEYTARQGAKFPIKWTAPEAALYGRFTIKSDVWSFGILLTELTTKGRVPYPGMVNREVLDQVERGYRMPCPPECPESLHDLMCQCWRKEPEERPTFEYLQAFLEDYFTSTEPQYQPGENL

Activity [8]	SMILES	CC50 [1] [nM]	Activity [2]	Activity [3]	Activity [4]	Activity [5]	Activity [6]	Activity [7]
	O=C(Nc1nnc(SCc2ccc(F)cc2)s1)c1ccc(F)cc1	2200	Active	Active	Active	inactive	Active	Active
inactive	O=C(Nc1nnc(CCc2ccccc2)s1)c1ccc(I)cc1							
